Experimental data: PMC9133015 (Nature Communications, 2022)
“And” between values parts separate entries of the source, which are not always exact repeats. Equal entries are not always repeated. Where two headings read alike, the source gives them in different places.

Assays:
Assay in all cases: Kinase inhibitor specificity profiling (Reaction Biology Corporation)
Format in all cases: biochemical
Set-up in all cases: % Enzyme Activity (relative to DMSO controls): concentration or dose not given beside the values
[1] = target: T1, panel of 370 protein kinases (Homo sapiens, UniProt P04049); details: 2 h, kinase RAF1; read-out: % Enzyme Activity (relative to DMSO controls)
T1 construct: purchased Reaction Biology Corporation (assay service)
T1 sequence (P04049 whole entry): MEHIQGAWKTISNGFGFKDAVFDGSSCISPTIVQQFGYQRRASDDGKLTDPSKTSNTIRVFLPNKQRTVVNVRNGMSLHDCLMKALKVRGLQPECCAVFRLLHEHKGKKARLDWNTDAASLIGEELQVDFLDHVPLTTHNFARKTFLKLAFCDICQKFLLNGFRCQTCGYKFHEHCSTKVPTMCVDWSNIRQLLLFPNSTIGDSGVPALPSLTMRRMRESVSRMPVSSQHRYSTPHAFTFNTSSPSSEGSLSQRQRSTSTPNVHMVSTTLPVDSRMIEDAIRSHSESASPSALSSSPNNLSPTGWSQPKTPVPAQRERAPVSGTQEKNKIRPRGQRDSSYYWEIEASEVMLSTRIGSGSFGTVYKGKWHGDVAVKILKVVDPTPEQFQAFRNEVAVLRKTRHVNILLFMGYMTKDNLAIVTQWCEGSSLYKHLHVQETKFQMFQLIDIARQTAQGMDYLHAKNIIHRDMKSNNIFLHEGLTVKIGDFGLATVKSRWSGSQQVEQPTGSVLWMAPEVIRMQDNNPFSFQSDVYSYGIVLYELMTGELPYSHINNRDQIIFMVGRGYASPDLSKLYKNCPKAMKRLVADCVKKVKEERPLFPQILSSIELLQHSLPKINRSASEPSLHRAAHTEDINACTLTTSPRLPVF

[2] = target: T2, panel of 370 protein kinases (Homo sapiens, UniProt P11802); details: 2 h, read-out: % Enzyme Activity (relative to DMSO controls)
T2 construct: purchased Reaction Biology Corporation (assay service)
T2 sequence (P11802 whole entry): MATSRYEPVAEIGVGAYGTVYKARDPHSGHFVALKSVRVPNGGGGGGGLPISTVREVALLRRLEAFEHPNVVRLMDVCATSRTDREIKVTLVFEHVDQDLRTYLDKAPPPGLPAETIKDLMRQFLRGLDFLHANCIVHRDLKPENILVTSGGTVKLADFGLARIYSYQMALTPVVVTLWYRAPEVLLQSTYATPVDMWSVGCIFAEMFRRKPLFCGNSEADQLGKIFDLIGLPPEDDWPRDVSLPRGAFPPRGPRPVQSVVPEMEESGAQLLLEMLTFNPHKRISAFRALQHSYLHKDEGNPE

[3] = target: T3, panel of 370 protein kinases (Homo sapiens, UniProt P11309); details: 2 h, kinase PIM1; read-out: % Enzyme Activity (relative to DMSO controls)
T3 construct: purchased Reaction Biology Corporation (assay service)

[4] = target: T4, panel of 370 protein kinases (Homo sapiens, UniProt Q8TF76); details: 2 h, kinase Haspin; read-out: % Enzyme Activity (relative to DMSO controls)
T4 construct: purchased Reaction Biology Corporation (assay service)

[5] = target: T5, panel of 370 protein kinases (Homo sapiens, UniProt P36888); details: 2 h, kinase FLT3; read-out: % Enzyme Activity (relative to DMSO controls)
T5 construct: purchased Reaction Biology Corporation (assay service)

[6] = target: T6, panel of 370 protein kinases (Homo sapiens, UniProt Q9Y2H1); details: 2 h, kinase STK38L/NDR2; read-out: % Enzyme Activity (relative to DMSO controls)
T6 construct: purchased Reaction Biology Corporation (assay service)

[7] = target: T7, panel of 370 protein kinases (Homo sapiens, UniProt P43403); details: 2 h, kinase ZAP70; read-out: % Enzyme Activity (relative to DMSO controls)
T7 construct: purchased Reaction Biology Corporation (assay service)
T7 sequence (P43403 whole entry): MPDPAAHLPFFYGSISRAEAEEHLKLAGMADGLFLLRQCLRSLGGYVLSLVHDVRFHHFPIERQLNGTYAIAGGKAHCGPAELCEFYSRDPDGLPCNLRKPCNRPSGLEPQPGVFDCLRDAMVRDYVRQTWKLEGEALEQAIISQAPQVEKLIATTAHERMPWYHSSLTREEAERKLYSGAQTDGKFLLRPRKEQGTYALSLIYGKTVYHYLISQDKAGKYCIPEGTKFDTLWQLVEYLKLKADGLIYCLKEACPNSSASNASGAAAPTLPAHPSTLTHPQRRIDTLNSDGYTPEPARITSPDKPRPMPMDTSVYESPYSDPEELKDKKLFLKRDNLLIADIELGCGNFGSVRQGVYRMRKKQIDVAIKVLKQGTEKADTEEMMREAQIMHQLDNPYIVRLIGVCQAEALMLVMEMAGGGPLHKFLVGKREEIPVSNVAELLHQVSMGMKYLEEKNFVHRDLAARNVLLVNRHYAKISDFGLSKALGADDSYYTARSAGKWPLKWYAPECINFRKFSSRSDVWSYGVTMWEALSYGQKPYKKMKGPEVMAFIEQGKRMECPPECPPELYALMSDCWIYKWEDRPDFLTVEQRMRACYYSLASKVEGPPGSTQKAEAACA

[8] = target: T8, panel of 370 protein kinases (Homo sapiens, UniProt P09769); details: 2 h, kinase FGR; read-out: % Enzyme Activity (relative to DMSO controls)
T8 construct: purchased Reaction Biology Corporation (assay service)

[9] = target: T9, panel of 370 protein kinases (Homo sapiens, UniProt P68400); details: 2 h, kinase CK2a; read-out: % Enzyme Activity (relative to DMSO controls)
T9 construct: purchased Reaction Biology Corporation (assay service)
T9 sequence (P68400 whole entry): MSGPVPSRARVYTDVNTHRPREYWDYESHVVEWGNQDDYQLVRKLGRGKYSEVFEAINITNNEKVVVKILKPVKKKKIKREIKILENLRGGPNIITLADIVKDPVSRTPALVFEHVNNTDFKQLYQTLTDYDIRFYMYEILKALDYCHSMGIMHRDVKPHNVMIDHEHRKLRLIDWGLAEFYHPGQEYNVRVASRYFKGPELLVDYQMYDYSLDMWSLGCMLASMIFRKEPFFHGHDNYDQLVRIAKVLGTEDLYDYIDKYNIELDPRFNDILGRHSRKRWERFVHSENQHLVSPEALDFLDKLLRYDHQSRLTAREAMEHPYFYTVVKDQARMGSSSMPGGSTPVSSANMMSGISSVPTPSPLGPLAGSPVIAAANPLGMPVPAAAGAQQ

[10] = target: T10, panel of 370 protein kinases (Homo sapiens, UniProt Q9UHD2); details: 2 h, kinase TBK1; read-out: % Enzyme Activity (relative to DMSO controls)
T10 construct: purchased Reaction Biology Corporation (assay service)

[11] = target: T11, panel of 370 protein kinases (Homo sapiens, UniProt Q8IY84); details: 2 h, kinase NIM1; read-out: % Enzyme Activity (relative to DMSO controls)
T11 construct: purchased Reaction Biology Corporation (assay service)
T11 sequence (Q8IY84 whole entry): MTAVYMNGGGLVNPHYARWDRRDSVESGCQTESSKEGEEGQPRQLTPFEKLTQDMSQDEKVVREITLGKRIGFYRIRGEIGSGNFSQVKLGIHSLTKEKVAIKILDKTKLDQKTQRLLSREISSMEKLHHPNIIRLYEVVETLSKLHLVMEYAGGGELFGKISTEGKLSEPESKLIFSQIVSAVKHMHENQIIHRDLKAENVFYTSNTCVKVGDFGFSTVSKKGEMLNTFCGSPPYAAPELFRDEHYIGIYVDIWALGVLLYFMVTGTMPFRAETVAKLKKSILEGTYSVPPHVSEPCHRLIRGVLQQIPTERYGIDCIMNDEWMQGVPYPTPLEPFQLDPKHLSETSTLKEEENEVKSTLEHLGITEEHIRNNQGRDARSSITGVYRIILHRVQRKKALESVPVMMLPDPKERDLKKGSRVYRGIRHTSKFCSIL

[12] = target: T12, panel of 370 protein kinases (Homo sapiens, UniProt Q06418); details: 2 h, kinase TYRO3/SKY; read-out: % Enzyme Activity (relative to DMSO controls)
T12 construct: purchased Reaction Biology Corporation (assay service)

[13] = target: T13, panel of 370 protein kinases (Homo sapiens, UniProt Q15759); details: 2 h, kinase P38b/MAPK11; read-out: % Enzyme Activity (relative to DMSO controls)
T13 construct: purchased Reaction Biology Corporation (assay service)

[14] = target: T14, panel of 370 protein kinases (Homo sapiens, UniProt Q8NEV4); details: 2 h, kinase MYO3A; read-out: % Enzyme Activity (relative to DMSO controls)
T14 construct: purchased Reaction Biology Corporation (assay service)
T14 sequence (Q8NEV4 whole entry): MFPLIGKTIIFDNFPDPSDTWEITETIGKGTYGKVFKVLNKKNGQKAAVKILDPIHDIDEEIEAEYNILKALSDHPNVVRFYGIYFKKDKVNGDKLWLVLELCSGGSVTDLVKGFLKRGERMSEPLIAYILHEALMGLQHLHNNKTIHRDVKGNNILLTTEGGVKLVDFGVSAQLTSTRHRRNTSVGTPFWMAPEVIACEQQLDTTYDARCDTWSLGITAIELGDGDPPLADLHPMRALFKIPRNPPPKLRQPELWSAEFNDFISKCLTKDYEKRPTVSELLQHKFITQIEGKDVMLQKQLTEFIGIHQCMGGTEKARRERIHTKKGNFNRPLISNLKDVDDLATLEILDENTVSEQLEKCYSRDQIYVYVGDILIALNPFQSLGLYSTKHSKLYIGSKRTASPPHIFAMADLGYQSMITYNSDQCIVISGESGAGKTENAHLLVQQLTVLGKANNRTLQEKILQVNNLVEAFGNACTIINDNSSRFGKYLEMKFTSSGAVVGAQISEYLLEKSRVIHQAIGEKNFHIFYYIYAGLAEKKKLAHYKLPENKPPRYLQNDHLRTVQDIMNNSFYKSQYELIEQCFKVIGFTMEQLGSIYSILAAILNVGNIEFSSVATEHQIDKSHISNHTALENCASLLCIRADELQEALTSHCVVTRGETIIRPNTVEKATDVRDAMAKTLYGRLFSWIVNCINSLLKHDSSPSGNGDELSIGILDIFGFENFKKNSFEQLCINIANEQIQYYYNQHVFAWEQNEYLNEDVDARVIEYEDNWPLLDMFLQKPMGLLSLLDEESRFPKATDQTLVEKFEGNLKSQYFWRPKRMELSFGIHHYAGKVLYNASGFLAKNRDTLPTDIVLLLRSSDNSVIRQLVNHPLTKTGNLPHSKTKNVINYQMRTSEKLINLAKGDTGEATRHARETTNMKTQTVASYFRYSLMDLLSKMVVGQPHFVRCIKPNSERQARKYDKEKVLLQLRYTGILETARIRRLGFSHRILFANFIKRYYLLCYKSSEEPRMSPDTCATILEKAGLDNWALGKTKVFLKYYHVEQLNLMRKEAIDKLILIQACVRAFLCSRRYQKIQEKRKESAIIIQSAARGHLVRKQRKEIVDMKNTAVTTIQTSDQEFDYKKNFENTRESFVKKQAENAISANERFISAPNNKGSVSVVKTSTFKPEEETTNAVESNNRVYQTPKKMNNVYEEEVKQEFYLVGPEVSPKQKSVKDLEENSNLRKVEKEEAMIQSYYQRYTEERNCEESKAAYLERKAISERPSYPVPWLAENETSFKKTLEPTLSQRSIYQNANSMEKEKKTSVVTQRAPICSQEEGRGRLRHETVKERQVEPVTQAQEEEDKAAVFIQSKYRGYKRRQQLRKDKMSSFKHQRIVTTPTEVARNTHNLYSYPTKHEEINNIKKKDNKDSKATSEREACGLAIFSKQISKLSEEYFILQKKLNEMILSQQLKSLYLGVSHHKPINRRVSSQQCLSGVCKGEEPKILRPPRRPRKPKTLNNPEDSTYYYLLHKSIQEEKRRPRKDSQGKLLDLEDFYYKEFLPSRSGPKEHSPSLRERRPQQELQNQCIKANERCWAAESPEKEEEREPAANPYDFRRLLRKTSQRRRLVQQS

[15] = target: T15, panel of 370 protein kinases (Homo sapiens, UniProt P51617); details: 2 h, kinase IRAK1; read-out: % Enzyme Activity (relative to DMSO controls)
T15 construct: purchased Reaction Biology Corporation (assay service)

[16] = target: T16, panel of 370 protein kinases (Homo sapiens, UniProt P29320); details: 2 h, kinase EPHA3; read-out: % Enzyme Activity (relative to DMSO controls)
T16 construct: purchased Reaction Biology Corporation (assay service)

[17] = target: T17, panel of 370 protein kinases (Homo sapiens, UniProt Q13164); details: 2 h, kinase ERK5/MAPK7; read-out: % Enzyme Activity (relative to DMSO controls)
T17 construct: purchased Reaction Biology Corporation (assay service)

[18] = target: T18, panel of 370 protein kinases (Homo sapiens, UniProt Q99986); details: kinase VRK1
T18 construct: purchased Reaction Biology Corporation (assay service)
T18 sequence (Q99986 whole entry): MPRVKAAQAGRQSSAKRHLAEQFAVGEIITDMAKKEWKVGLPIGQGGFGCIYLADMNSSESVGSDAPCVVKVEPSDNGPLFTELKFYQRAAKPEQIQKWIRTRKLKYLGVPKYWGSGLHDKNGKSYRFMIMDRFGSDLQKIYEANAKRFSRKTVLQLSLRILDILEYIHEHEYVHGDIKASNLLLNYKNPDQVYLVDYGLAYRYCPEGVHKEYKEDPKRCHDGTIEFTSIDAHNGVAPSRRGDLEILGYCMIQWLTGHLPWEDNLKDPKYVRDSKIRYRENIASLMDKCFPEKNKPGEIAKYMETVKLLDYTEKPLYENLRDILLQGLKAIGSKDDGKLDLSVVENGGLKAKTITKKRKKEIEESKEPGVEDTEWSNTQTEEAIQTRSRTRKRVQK

[19] = target: T19, panel of 370 protein kinases (Homo sapiens, UniProt O43318); details: 2 h, kinase TAK1; read-out: % Enzyme Activity (relative to DMSO controls)
T19 construct: purchased Reaction Biology Corporation (assay service)

[20] = target: T20, panel of 370 protein kinases (Homo sapiens, UniProt Q5TCX8); details: 2 h, kinase MLK4; read-out: % Enzyme Activity (relative to DMSO controls)
T20 construct: purchased Reaction Biology Corporation (assay service)

[21] = target: T21, panel of 370 protein kinases (Homo sapiens, UniProt Q04771); details: 2 h, kinase ALK2/ACVR1; read-out: % Enzyme Activity (relative to DMSO controls)
T21 construct: purchased Reaction Biology Corporation (assay service)
T21 sequence (Q04771 21-509): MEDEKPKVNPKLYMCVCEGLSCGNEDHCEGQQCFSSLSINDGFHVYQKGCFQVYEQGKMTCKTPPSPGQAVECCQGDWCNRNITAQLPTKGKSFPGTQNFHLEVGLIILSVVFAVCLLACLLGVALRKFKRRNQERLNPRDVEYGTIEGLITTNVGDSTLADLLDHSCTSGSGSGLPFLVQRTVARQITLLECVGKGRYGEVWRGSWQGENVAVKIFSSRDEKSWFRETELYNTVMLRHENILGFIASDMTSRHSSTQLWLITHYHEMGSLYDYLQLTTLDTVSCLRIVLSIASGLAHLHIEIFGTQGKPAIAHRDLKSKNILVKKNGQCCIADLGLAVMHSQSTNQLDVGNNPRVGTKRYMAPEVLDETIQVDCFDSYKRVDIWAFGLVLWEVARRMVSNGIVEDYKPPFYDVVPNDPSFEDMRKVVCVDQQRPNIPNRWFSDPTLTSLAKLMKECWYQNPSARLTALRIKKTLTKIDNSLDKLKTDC

CCN1CCN(C(=O)c2ccc(Nc3ncc(F)c(-c4ccc5nc(N(C)C)sc5c4)n3)nc2)CC1 [YK-2-69]
remaining activity at 1 µM [1]: 106%
remaining activity at 1 µM ([2]; kinase CDK4/cyclin D1): 6.13%
remaining activity at 1 µM ([2]; kinase CDK4/cyclin D3): 11.2%
remaining activity at 1 µM [3]: 77%
remaining activity at 1 µM [4]: 99%
remaining activity at 1 µM [5]: 92.7%
remaining activity at 1 µM [6]: 95.4%
remaining activity at 1 µM [7]: 87.8%
remaining activity at 1 µM [8]: 106%
remaining activity at 1 µM [9]: 52.3%
remaining activity at 1 µM [10]: 93.1%
remaining activity at 1 µM [11]: 96.9%
remaining activity at 1 µM [12]: 96.6%
remaining activity at 1 µM [13]: 94.9%
remaining activity at 1 µM [14]: 103%
remaining activity at 1 µM [15]: 90.6%
remaining activity at 1 µM [16]: 95.2%
remaining activity at 1 µM [17]: 104%
% Enzyme Activity (relative to DMSO controls) [18]: 95.92% and 87.82%
remaining activity at 1 µM [19]: 103%
remaining activity at 1 µM [20]: 104%
remaining activity at 1 µM [21]: 160%
